The Ki is the equilibrium dissociation constant of an inhibitor or competing ligand from its target. As usually defined, the IC50 is the concentration at which inhibition is half-maximal. Lower therefore signals higher potency.

The structures appear in SMILES notation.

A short description of assay [1]: Displacement of [3H]NTI from delta opioid receptor in Hartley guinea pig forebrain by liquid scintillation counter. The arrangement: species or system Cavia porcellus.
Assay [2] concerns the target Kappa-type opioid receptor (Cavia porcellus, UniProt P41144). The experiment in a line: Displacement of [3H][…] from kappa opioid receptor in Hartley guinea pig cerebellum by liquid scintillation counter. In kind it is tissue-based. For orientation: In a radioligand displacement assay an active substance lowers the binding of a labelled ligand.
The target of assay [3] is Mu-type opioid receptor (Cavia porcellus, UniProt P97266). The assay is described as follows: Displacement of [3H]DAMGO from mu opioid receptor in Hartley guinea pig forebrain by liquid scintillation counting.
Chain of Mu-type opioid receptor (P97266 whole entry): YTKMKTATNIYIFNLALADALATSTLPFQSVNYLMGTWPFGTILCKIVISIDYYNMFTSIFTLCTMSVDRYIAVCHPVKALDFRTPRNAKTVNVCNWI

Chain of Kappa-type opioid receptor (P41144 whole entry): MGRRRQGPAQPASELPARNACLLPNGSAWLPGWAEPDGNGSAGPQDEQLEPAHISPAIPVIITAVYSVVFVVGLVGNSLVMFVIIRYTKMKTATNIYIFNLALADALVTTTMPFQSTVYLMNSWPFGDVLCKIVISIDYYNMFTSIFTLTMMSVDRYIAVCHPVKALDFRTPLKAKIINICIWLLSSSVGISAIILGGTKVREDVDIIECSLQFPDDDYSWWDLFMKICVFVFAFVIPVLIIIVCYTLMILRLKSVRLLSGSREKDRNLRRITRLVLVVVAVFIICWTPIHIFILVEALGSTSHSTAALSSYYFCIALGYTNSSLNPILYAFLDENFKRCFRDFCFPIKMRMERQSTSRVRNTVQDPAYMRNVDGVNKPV

In the case of `CN(CC1CC1)[C@@H]1Cc2ccc(O)c3c2[C@@H]2[C@H]1CCC(=O)[C@@H]2O3`, the inhibition constant (Ki) is 272 nM in assay [1], 8.81 nM in assay [2] and 3.36 nM in assay [3].
In the case of `CN(C)[C@@H]1Cc2ccc(O)c3c2[C@@H]2[C@H]1CCC(=O)[C@@H]2O3`, the IC50 in assay [1] and in assay [2] was above 1000 nM each time. The affinity in assay [3] corresponds to a Ki of 50.9 nM.
On to `CN[C@@H]1Cc2ccc(O)c3c2[C@H]2[C@@H](O3)C(=O)CC[C@@]12O`, for which the IC50 in assay [1] and in assay [2] was above 1000 nM in each case. Also, in assay [3], the affinity corresponds to a Ki of 118 nM.
`O=C1CC[C@@]2(O)[C@H](NCC3CC3)Cc3ccc(O)c4c3[C@H]2[C@H]1O4` came in with a 50% inhibitory concentration (IC50) in assay [1] above 1000 nM. In addition, the Ki in assay [2] was found to be 68.4 nM; in assay [3], 24.7 nM.
Take `CN(C)[C@@H]1Cc2ccc(O)c3c2[C@H]2[C@@H](O3)C(=O)CC[C@]21O`: the concentration for half-maximal inhibition (IC50) in assay [1] and in assay [2] was above 1000 nM in each case. This compound also returned a Ki in assay [3] of 8.95 nM.
Regarding `CN[C@@H]1Cc2ccc(O)c3c2[C@@H]2[C@H]1CCC(=O)[C@@H]2O3`, the IC50 in assay [1] and in assay [2] was above 1000 nM each time. Also, in assay [3], the inhibition constant Ki amounted to 164 nM.
Turning to `CN(CC1CC1)[C@@H]1Cc2ccc(O)c3c2[C@H]2[C@@H](O3)C(=O)CC[C@]21O`, the Ki in assay [1] is 55.2 nM; in assay [2], 5.1 nM; in assay [3], 1.17 nM.
As to `O=C1CC[C@@]23OCCN(CC4CC4)[C@@H]2Cc2ccc(O)c4c2[C@H]3[C@H]1O4`, the 50% inhibitory concentration (IC50) in assay [1] and in assay [2] was above 1000 nM each time. The affinity in assay [3] corresponds to a Ki of 294 nM.
In the case of `CN1CCO[C@@]23CCC(=O)[C@@H]4Oc5c(O)ccc(c5[C@@H]42)C[C@@H]13`, the half-maximal inhibitory concentration (IC50) in assay [1], in assay [2] and in assay [3] was above 1000 nM each time.
For `O=C1CC[C@]23OCCN4CC[C@@]25c2c(ccc(O)c2O[C@@H]15)C[C@@H]43`, the half-inhibitory concentration (IC50) in assay [1] is above 1000 nM. Also, the Ki stood at 72.6 nM in assay [2] and 86 nM in assay [3].
In assay [1], `O=C1CC[C@@H]2[C@H]3c4c(ccc(O)c4O[C@@H]13)C[C@H]2NCC1CC1` showed a 50% inhibitory concentration (IC50) above 1000 nM. The inhibition constant Ki in assay [2] amounted to 32.2 nM; in assay [3], 30.3 nM.

Values taken from ChEMBL document CHEMBL1158597, “Investigation of Beckett-Casy model 2: synthesis of novel 15-16 nornaltrexone derivatives and their pharmacology” (Bioorg Med Chem Lett, 2010).
